Source: patent publication US8541442B2, “Indole derivatives as anticancer agents” (Janssen Pharmaceutica N.V., priority 2009, dated 2013)

Columns and labels:
human U87 glioma tumor = assay: In vivo anti tumour effects, U87 glioma xenograft; conditions: U87 xenograft in NMRI Nude mice, 20 mg/kg p.o. QD for 5 days
Description: Immuno-deficient (athymic) male NMRI Nude (Nu/Nu) mice (20-25 g obtained from Janvier, France) were used for these studies. Initial weight was approximately […]. All animals were maintained under SPF “full barrier” conditions with free access to food and water. Mice were group housed under a 12-h light:dark cycle (lights on at 06:00 h) at a temperature of 19 to 22° C. and 35 to 40% humidity in Techniplast type-3 IVC cages. Mice were fed a standard Laboratory chow. All experiments were carried out in accordance with the European Communities Council Directives (86/609/EEC) and had to be approved by the local ethical committee. For an established tumor xenograft model (tumor volume ˜200 mm^3), mice were randomized according to tumor volumes, with 5 mice per treatment group.
The human U87 glioma tumor cell line was derived from a patient. Cells were cultured at 37° C. in a humidified atmosphere (5% CO2, 95% air), in DMEM medium supplemented with 2 mM L-glutamine, 2.0 mM sodium pyruvate, 25 units/ml penicillin/25 μg/ml streptomycin and 10% fetal bovine serum. Cells were maintained as cell monolayer cultures, being passaged twice weekly at 3×10^6 cells per T175 flask using the following procedure. Briefly cells were washed with PBS (without Mg^2+, Ca^2+), before addition of trypsin-EDTA to the culture flasks. After detachment of cells the trypsin-EDTA was inactivated by addition of complete medium. Cell suspension was then transferred to 50 ml Falcon tube and centrifuged for 3 min at 1200 rpm. Medium was aspirated, with the cells being re-suspended in an appropriate volume of complete medium. The cells were counted in a haemocytometer and their viability was assessed by 0.25% trypan blue exclusion. An appropriate volume of cell suspension was then added to either a new T175 culture flask(s) or roller bottle containing fresh medium. For large scale-up growth of U87 tumor cells, an appropriate number of roller bottles were seeded with 0.5 to 1×10^7 cells 1 week prior to inoculation of mice. The medium was changed twice during this period, with the last change being the day prior to cell injection. Cells were collected as described above, with the exception that after centrifugation, the cells were re-suspended in cold (4° C.) serum-free medium. Mice were injected in the inguinal region with 1×10^7 cells total in a 200 μl volume.
Human U87 glioma cells were injected directly into the inguinal region of the male NMRI Nude mice (1×10^7 cells/200 μl/animal) on day 0 (D0). On day 7-10 (can vary due to tumor take/growth between cell batches) when tumor volume had reached an approximate average of 200 mm^3, mice were randomized according to tumor volume, with 5 mice per treatment group. Mice were then treated once daily (QD) with either vehicle (10% HP-β-CD) or vehicle containing test compound (20 mg/kg) by gavage (p.o.) administered in a volume of 10 ml/kg body weight for 5 days. Specific tumor measurements were taken on day 6 (24 hours post 5th dose) and then again on day 10. Tumor re-growth (after dosing has stopped) was monitored so that the time-to-reach a volume of 2000 mm^3 (TTR2000) can be recorded. This gives extra information on the duration of drug action on the tumor growth. In general, tumor size and body weights were measured twice weekly, with mice monitored daily for clinical signs of toxicity for the duration of the treatment. Clinical signs of toxicity included (but not limited to), persistent anorexia or dehydration, posture, moribund, lethargy, hypothermia and/or laboured respiration (according to the UKCCCR guidelines for welfare of animals in experimental neoplasia (The UKCCCR (UK Coordinating Committee on Cancer Research) guidelines for the welfare of animals in experimental neoplasia (July 1997); and Workman, P. et al. UKCCCR guideline. Br. J. Cancer. 1998, 77: 1-10). […]

[1] = test system: colorectal cancer cell line HCT116; assay: Alamar Blue cell proliferation assay, HCT116; format: cell-based; conditions: HCT116 cells
Description: (§1) For experiments in 384 wells plates the cells were seeded at a density of 5×10^3 cells/ml in Falcon 384-well culture plates (Life Technologies, Merelbeke, Belgium), black with clear bottom, in 45 μl culture medium. Cells were allowed to adhere to plastic for 24 hr. The tested compound was pre-diluted (1/50 in culture medium) and 5 μl pre-diluted compound was added to the wells. Following 4-day incubation, 10 μl of the Alamar Blue solution was added to each well and the cells were further incubated for 5 hrs (A2780) at 37° C. The fluorescence intensity was measured for each well with a Fluorescence plate reader (Fluorskan, Labsystems, 540 nm excitation and 590 nm emission)
(§2) The antiproliferative activity was calculated as percentage of remaining viable cells in treated versus control (untreated cells) conditions. Within an experiment, the result for each experimental condition is the mean of 3 replicate wells. When appropriate, the experiments were repeated to establish full concentration-response curves. When appropriate, IC50-values (concentration of the drug, needed to reduce cell growth to 50% of the control) were computed using probit analysis for graded data (Finney, D. J., Probit Analyses, 2nd Ed. Chapter 10, Graded Responses, Cambridge University Press, Cambridge 1962). Herein the effects of test compounds are expressed as pIC50 (the negative log value of the IC50-value (M)) (see Table 5A).
(§3) Compounds were also tested according to the above protocol but using other cell lines: colorectal cancer cell line HCT116, non-small cell lung cancer cell line H1299, human prostate cancer cell line DU145.

[2] = test system: non-small cell lung cancer cell line H1299; assay: Alamar Blue cell proliferation assay, H1299; format: cell-based; conditions: H1299 cells
Description: as §1, §2, §3

HCT116 cell proliferation inhibition pIC50 [1]: 6.47 | H1299 cell proliferation inhibition pIC50 [2]: 5.68
Compound: Cc1cc(Nc2ccnc3c2CCC3(C)O)ccc1NCCc1c[nH]c2c(C(C)O)cccc12 (stereo not shown) [Compound 10]
% T/C day 6 (human U87 glioma tumor; day 6 after start dosing): 96% | % T/C day 10 (human U87 glioma tumor; day 10 after start dosing): 71%
